Assay results: PubChem BioAssay (NCI)
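Each compound was tested at five concentrations against cells in 96-well plates for 48 hours. TGI marks complete inhibition of growth.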 Where a SMILES comes first, the peptide text is derived from it. [ ]: non-standard residue; d: D form. The star is where a group is joined. Phe(2-OMe) = COc1ccccc1C[CH](N)C(=O)O; Cbz = O=C(OCc1ccccc1)*; OBn = c1ccc(CO*)cc1

Tests used:
Assay in all cases: NCI tumour cell line growth inhibition, 48 h
[1] = tested on: 786-0 renal
[2] = tested on: A498 renal
[3] = tested on: A549 NSCLC
[4] = tested on: ACHN renal
[5] = tested on: BT-549 breast
[6] = tested on: CCRF-CEM leukemia
[7] = tested on: COLO 205 colon
[8] = tested on: EKVX NSCLC
[9] = tested on: HCC-2998 colon
[10] = tested on: HCT-116 colon
[11] = tested on: HL-60(TB) leukemia
[12] = tested on: HOP-62 NSCLC
[13] = tested on: HOP-92 NSCLC
[14] = tested on: HS 578T breast
[15] = tested on: HT29 colon
[16] = tested on: IGROV1 ovarian
[17] = tested on: K-562 leukemia
[18] = tested on: KM12 colon
[19] = tested on: M14 melanoma
[20] = tested on: MALME-3M melanoma
[21] = tested on: MCF7 breast
[22] = tested on: MDA-N
[23] = tested on: MOLT-4 leukemia
[24] = tested on: NCI-H226 lung
[25] = tested on: NCI-H23 lung
[26] = tested on: NCI-H460 lung
[27] = tested on: OVCAR-5 ovarian
[28] = tested on: OVCAR-8 ovarian
[29] = tested on: PC-3 prostate
[30] = tested on: RPMI-8226 leukemia
[31] = tested on: RXF 393 renal
[32] = tested on: SK-MEL-2 melanoma
[33] = tested on: SK-MEL-28 melanoma
[34] = tested on: SK-MEL-5 melanoma
[35] = tested on: SNB-19 CNS
[36] = tested on: SNB-75 CNS
[37] = tested on: SR leukemia
[38] = tested on: SW-620 colon
[39] = tested on: TK-10 renal
[40] = tested on: U251 CNS
[41] = tested on: UACC-257 melanoma
[42] = tested on: UACC-62 melanoma
[43] = tested on: UO-31 renal
[44] = tested on: CAKI-1 renal
[45] = tested on: DU-145 prostate
[46] = tested on: HCT-15 colon
[47] = tested on: LOX IMVI melanoma
[48] = tested on: MDA-MB-231 breast
[49] = tested on: MDA-MB-435
[50] = tested on: NCI-H522 lung
[51] = tested on: NCI/ADR-RES ovarian
[52] = tested on: OVCAR-3 ovarian
[53] = tested on: OVCAR-4 ovarian
[54] = tested on: SF-295 CNS
[55] = tested on: SF-539 CNS
[56] = tested on: SK-OV-3 ovarian
[57] = tested on: SF-268 CNS
[58] = tested on: SN12C renal

Measured: TGI

COC(=O)C(Cc1ccccc1OC)NC(=O)C(CC(=O)OCc1ccccc1)NC(=O)OCc1ccccc1 (stereo not given) (Cbz-Asp(OBn)-[Phe(2-OMe)]-OMe; configuration not given here)
84.6 µM: [37]
not listed: [44] | [45] | [46] | [47] | [48] | [49] | [50] | [51] | [52] | [53] | [54] | [55] | [56] | [57] | [58]
> 100 µM: all other assays above

CC1(C)OC(CCC#N)CN1C(=O)OCc1ccccc1 (stereo not given)
not listed: [12] | [14] | [15] | [57] | [58]
> 100 µM: all other assays above

O=Cc1cn(CCCCCn2cc(C=O)c3ccccc32)c2ccccc12
6.5 µM: [27]
11.4 µM: [26]
62.2 µM: [14]
72.6 µM: [57]
not listed: [2] | [9] | [12] | [17] | [18] | [21] | [33] | [36] | [53]
> 100 µM: all other assays above
